Source: patent US10010076B2, “Plant control composition containing peptide enhancing agent” (Arch Chemicals, Inc., priority 2013, dated 2018)

How the values were obtained:
Eurasian watermilfoil = Eurasian watermilfoil aquaria trial, biomass 4 weeks after treatment; details: 8 hr exposure
[1] = system: cyanophyta (blue-green algae); assay: Toxicity experiment on algae in Morrison Lake site water (chlorophyll-a, visual observations, total algae cell density); format: cell-based
Experimental: (§1) Five formulations were prepared and tested. The formulations included various pesticides used singularly, a protein surfactant blend used singularly, and pesticides used in combination with a protein surfactant blend. The tests were conducted on cyanophyta (blue-green algae) sampled from Morrison Lake located in Ionia County, Mich. The properties that were tested included the chlorophyll-a concentrations, cell densities, visual observations, and partial application label rates of chelated elemental copper and sodium carbonate peroxyhydrate. The initial chlorophyll-a concentration was determined to be 27.4 μg chlorophyll a/L. The initial water characteristics are listed in table 1. […]
(§2) The formulation tested was sodium carbonate peroxyhydrate and the exposure period was 10 days.
(§3) The algae were exposed to three concentrations in 500 mL flasks. The experiments were initiated using 300 mL of site water. The toxicity experiment was initiated by exposing the algae to 7.4, 22.1, and 36.9 mg sodium carbonate peroxyhydrate/L. Three replicates of each exposure concentration, along with three replicates of untreated controls, were tested. […]

Anabaena sp. = assay: Toxicity experiment on algae in Morrison Lake site water, cell density of Anabaena sp.; format: cell-based
Experimental: as §1, §2, §3

Aphanizomenon sp. = assay: Toxicity experiment on algae in Morrison Lake site water, cell density of Aphanizomenon sp.; format: cell-based
Experimental: as §1, §2, §3

Row | Compound | regrowth of Eurasian watermilfoil (Eurasian watermilfoil; 0.1 mg ai/L, 2 WAT) | injury to Eurasian watermilfoil (Eurasian watermilfoil; 0.1 mg ai/L, initial) | reducing Eurasian watermilfoil biomass (Eurasian watermilfoil; 0.2 mg ai/L, 4 WAT) | Avg. Day 4 Chlorophyll-a ([1]; 7.4 mg/L (20 lbs/acre-ft)) | Avg. Day 10 Chlorophyll-a ([1]; 7.4 mg/L (20 lbs/acre-ft)) | Avg. Day 4 Chlorophyll-a ([1]; 22.1 mg/L (60 lbs/acre-ft)) | Avg. Day 10 Cell Density, Total algae ([1]; 22.1 mg/L (60 lbs/acre-ft)) | Avg. Day 10 Chlorophyll-a ([1]; 22.1 mg/L (60 lbs/acre-ft)) | Avg. Day 4 Cell Density, Total algae ([1]; 36.9 mg/L (100 lbs/acre-ft)) | Avg. Day 4 Chlorophyll-a ([1]; 36.9 mg/L (100 lbs/acre-ft)) | Avg. Day 10 Cell Density, Total algae ([1]; 36.9 mg/L (100 lbs/acre-ft)) | Avg. Day 10 Chlorophyll-a ([1]; 36.9 mg/L (100 lbs/acre-ft)) | concentration of sodium carbonate peroxyhydrate needed for algae control ([1]; sodium carbonate peroxyhydrate applied alone) | Avg. Day 4 Cell Density, Anabaena sp. (Anabaena sp.; 7.4 mg/L (20 lbs/acre-ft)) | Avg. Day 10 Cell Density, Anabaena sp. (Anabaena sp.; 7.4 mg/L (20 lbs/acre-ft)) | Avg. Day 4 Cell Density, Anabaena sp. (Anabaena sp.; 22.1 mg/L (60 lbs/acre-ft)) | Avg. Day 4 Cell Density, Aphanizomenon sp. (Aphanizomenon sp.; 7.4 mg/L (20 lbs/acre-ft)) | Avg. Day 10 Cell Density, Aphanizomenon sp. (Aphanizomenon sp.; 7.4 mg/L (20 lbs/acre-ft)) | Avg. Day 4 Cell Density, Aphanizomenon sp. (Aphanizomenon sp.; 22.1 mg/L (60 lbs/acre-ft))
1 | CCOC(=O)C(Cl)Cc1cc(-n2nc(C)n(C(F)F)c2=O)c(F)cc1Cl (stereo not shown) [Carfentrazone-ethyl, Ethyl 2-chloro-3-[2-chloro-4-fluoro-5-[4-(difluoromethyl)-4,5-dihydro-3-methyl-5-oxo-1H-1,2,4-trizol-1-yl)phenyl]propanoate] | regrowth was noted | initial injury observed | effective at reducing Eurasian watermilfoil biomass | – | – | – | – | – | – | – | – | – | – | – | – | – | – | – | –
2 | O=C([O-])[O-].O=C([O-])[O-].OO.OO.OO.[Na+].[Na+].[Na+].[Na+] [Sodium Carbonate Peroxyhydrate, sodium carbonate peroxyhydrate] | – | – | – | 22.5 µg/L | 8.6 µg/L | 12.5 µg/L | <1 × 10^3 cells of/mL | 2.7 µg/L | <1 × 10^3 cells/mL | 7.9 µg/L | <1 × 10^3 cells of/mL | <2 µg/L | 22.7 ppm | 8.9 × 10^4 cells/mL | 4.1 × 10^4 cells of/mL | 1.8 × 10^4 cells/mL | 1.1 × 10^3 cells/mL | 2.8 × 10^4 cells of/mL | 6.5 × 10^4 cells/mL
